Key:
Format in all cases: cell-based
[1] = test system: bacterial mix: Escherichia coli DSM 1576, Alcaligenes faecalis DSM 13644, Pseudomonas aeuginosa ATCC 15442, Staphylococcus aureus ATCC 6538, Burkholderia …; test: Preservative activity of a basic composition (10% PG in water, pH 7) with 2-phenoxyethanol against bacterial contamination (Example 2.1); settings: 10% PG + 0.36% PE + 0.04% amide; for d7 [CFU/ml]: day 7; for d14 [CFU/ml]: day 14; for d21 [CFU/ml]: day 21
Description: (§1) An aqueous composition of pH 7 comprising 10% by weight of propyleneglycol (PG) as organic solvent, 0.36% by weight of 2-phenoxyethanol (PE) as antimicrobial and 0.04% by weight of the amide listed in the below table was tested for its preserving activity against bacterial contamination (the weight percentages relate to the total weight of the composition). For this purpose, the samples were contaminated with a bacterial mix consisting of: • Escherichia coli DSM 1576 • Alcaligenes faecalis DSM 13644 • Pseudomonas aeuginosa ATCC 15442 • Staphylococcus aureus ATCC 6538 • Burkholderia cepacia DSM 7288 • Pseudomonas putida DSM 12735
The samples were inoculated with the bacterial mix at day 0, 7 and 14 to obtain 10E+06 to 10E+07 CFU/ml inoculation in the test samples (compositions listed in the below table) consisting of 10% by weight of propylene glycol in water and stored at 25° C. for 21 days.
(§2) CFU was determined before re-inoculation at days 7 and 14, and on day 21.

[2] = test system: fungal mix (including yeasts and molds): Aspergillus brasiliensis DSM 1988, Rhodotorula mucilaginosa DSM 13621, Yarrowia lipolytica DSM 8218; test: Preservative activity of a basic composition (10% PG in water, pH 7) with 2-phenoxyethanol against fungal contamination (Example 1.1); settings: 10% PG + 0.36% PE + 0.04% Amide in water, pH 7, 25° C.; for d7 [CFU/ml]: fungal mix inoculated at day 0, 7 and 14 (1-3x10E+05 CFU/ml), day 7 before re-inoculation; for d14 [CFU/ml] / d21 [CFU/ml]: fungal mix inoculated at day 0, 7 and 14; for d14 [CFU/ml]: day 14 before re-inoculation; for d21 [CFU/ml]: day 21
Description: An aqueous composition of pH 7 comprising 10% by weight of propyleneglycol (PG) as organic solvent, 0.36% by weight of 2-phenoxyethanol (PE) as antimicrobial and 0.04% by weight of the amide listed in the below table was tested for its preserving activity against fungal contamination (the percentages are weight percent and relate to the total weight of the composition). For this purpose, the samples were contaminated with a fungal mix (including yeasts and molds) consisting of: • Aspergillus brasiliensis DS M 1988 • Rhodotorula mucilaginosa DSM 13621 • Yarrowia lipolytica DS M 8218
To control the efficacy, following control compositions were tested: • “Reference”, consisting of only 10% by weight of propylene glycol in water • “Comparative 1” containing 10% by weight of propylene glycol and amide in the given concentration, but no 2-phenoxyethanol • […] in the given concentration, but no amide.
The samples were inoculated with the fungal mix at day 0, 7 and 14 to obtain a cell density in the range of 1-3×10E+05 CFU/ml (CFU=colony forming units) in the test samples (compositions listed in the below table) and stored at 25° C. for 21 days.
as §2

[3] = test system: fungal mix: Aspergillus brasiliensis DSM 1988, Rhodotorula mucilaginosa DSM 13621, Yarrowia lipolytica DSM 8218; test: Preservative activity in a manual dishwashing composition (MDW, pH 7.1) with 1.0% 2-phenoxyethanol against fungal mix (Example 1.2); settings: for d7 [CFU/ml]: day 7; for d14 [CFU/ml]: day 14; for d21 [CFU/ml]: day 21
Description: (§3) A manual dish wash detergent (MDW) of pH 7.1 containing the following components was used:
The samples were contaminated with a fungal mix consisting of: • Aspergillus brasiliensis DSM 1988 • Rhodotorula mucilaginosa DSM 13621 • Yarrowia lipolytica DSM 8218
The samples were inoculated with the fungal mix at day 0 and 7 to obtain 1-3×10E+05 CFU/ml inoculation in the test sample consisting of the above-defined dish wash detergent MDW and stored at 25° C. for 21 days. CFU was determined before re-inoculation at day 7, and on days 14 and 21.
Any CFU value at d7, d14 or d21 obtained with a MDW sample of the invention containing 2-phenoxyethanol and amide (MDW+1.0% PE+x % of Amide) lower than the respective value of the comparative example (MDW+1.0% by weight of 2-phenoxyethanol) indicates a better performance of the inventive combination of 2-phenoxyethanol with the amide.

[4] = test system: bacterial mix: Escherichia coli DSM 1576, Alcaligenes faecalis DSM 13644, Pseudomonas aeruginosa ATCC 15442, Staphylococcus aureus ATCC 6538, Burkholderia …; test: Preservative activity in a manual dishwashing composition (MDW, pH 7.1) with 2.0% 2-phenoxyethanol against bacterial mix (Example 2.4); settings: for d7 [CFU/ml]: day 7; for d14 [CFU/ml]: day 14; for d21 [CFU/ml]: day 21
Description: as §3
(§4) The samples were contaminated with a bacterial mix consisting of: • Escherichia coli DSM 1576 • Alcaligenes faecalis DSM 13644 • Pseudomonas aeruginosa ATCC 15442 • Staphylococcus aureus ATCC 6538 • Burkholderia cepacia DSM 7288 • Pseudomonas putida DSM 12735
The samples were inoculated with the bacterial mix at day 0 and 7 to obtain 10E+06 to 10E+07 CFU/ml inoculation in the test sample and stored at 25° C. for 21 days. CFU was determined before re-inoculation at day 7 and on days 14 and 21.
Any CFU value at day 7 (d7), day 14 (d14) or day 21 (d21) obtained with a sample according to the invention containing 2-phenoxyethanol and amide (MDW+2.0% PE+x % Amide) lower than the respective value of the “comparative 2” example (MOW+2.0% by weight of 2-phenoxyethanol) indicates a better performance.

[5] = test system: bacterial mix: Escherichia coli DSM 1576, Alcaligenes faecalis DSM 13644, Pseudomonas aeruginosa ATCC 15442, Staphylococcus aureus ATCC 6538, Burkholderia …; test: Preservative activity in a manual dishwashing composition (MDW, pH 7.1) with 1.0% 2-phenoxyethanol against bacterial mix (Example 2.5); settings: MDW + 1.0% PE + 1.0% amide
Description: A manual dish wash detergent (MOW) of pH 7.1 containing the following components was used:
as §4
The samples were inoculated with the bacterial mix at day 0 and 7 to obtain 10E+06 to 10E+07 CFU/ml inoculation in the test sample and stored at 25° C. for 21 days. CFU was determined before re-inoculation at day 7 and on day 21.
Any CFU value at day 7 (d7) or day 21 (d21) obtained with a sample according to the invention containing 2-phenoxyethanol and amide (MDW+1.0% PE+1.0% Amide) lower than the respective value of the comparative example (MDW+1% by weight of 2-phenoxyethanol) indicates a better performance.

[6] = test system: bacterial mix: Escherichia coli DSM 1576, Alcaligenes faecalis DSM 13644, Pseudomonas aeruginosa ATCC 15442, Staphylococcus aureus ATCC 6538, Burkholderia …; test: Preservative activity of a basic composition (10% PG in water, pH 7) with 4,4'-dichloro-2-hydroxydiphenyl ether (diclosan) against bacterial contamination (Example 2.2); settings: day 7
Description: as §1, with “0.015%” for “0.36%”, “4,4′-dichloro-2-hydroxydiphenyl ether (diclosan)” for “2-phenoxyethanol (PE)”, “0.04 or 0.1%” for “0.04%”, “amides” for “amide”, “aeruginosa” for “aeuginosa”
The samples were inoculated with the bacterial mix at day 0 to obtain 10E+06 to 10E+07 CFU/ml inoculation in the test sample and stored at 25° C. for 7 days.
CFU was determined at day 7.
Any CFU value at day 7 (d7) obtained with a sample according to the invention containing diclosan and amide (10% PG+0.015% diclosan+Amide in water) lower than the respective value of the “comparative 3” example (10% by weight of propyleneglycol+0.015% by weight of 4,4′-dichloro-2-hydroxydiphenyl ether (diclosan) in water) indicates a better performance.

[7] = MDW + 0.25% amide, no PE (Comparative 1c)
[8] = MDW + 5.0% amide, no PE (Comparative 1a)

## CCCCCC(CCC)C(=O)N(C)C (centres unmarked) [2-Propyl-heptanoyl-N,N-dimethylamide]
[1]
  d7 [CFU/ml]: <10 CFU/ml
  d14 [CFU/ml]: 90 CFU/ml
  d21 [CFU/ml]: 2,700 CFU/ml

## CCCCCC(CCC)C(=O)N(C)C (centres unmarked) [2-Propylheptanoyl-N,N-dimethylamide]
[2]
  d7 [CFU/ml]: 5,200 CFU/ml
  d14 [CFU/ml]: 3,250 CFU/ml
  d21 [CFU/ml]: 8,000 CFU/ml

## CCCCCCCCCCCC(=O)N(C)C [Dodecanoyl-N,N-dimethylamide]
[2]
  d7 [CFU/ml]: 25 CFU/ml
  d14 [CFU/ml]: 170 CFU/ml
  d21 [CFU/ml]: 245 CFU/ml
[1]
  d7 [CFU/ml]: <10 CFU/ml
  d14 [CFU/ml]: <10 CFU/ml
  d21 [CFU/ml]: 450 CFU/ml

## CCCCCCN(CCCCCC)C(C)=O [Ethanoyl-N,N-dihexylamide]
[2]
  d7 [CFU/ml]: 3,100 CFU/ml
  d14 [CFU/ml]: 2,750 CFU/ml
  d21 [CFU/ml]: 2,450 CFU/ml
[1]
  d7 [CFU/ml]: 75 CFU/ml
  d14 [CFU/ml]: 200 CFU/ml
  d21 [CFU/ml]: 1,450 CFU/ml

## CC(CC(=O)N(C)C)CC(C)(C)C (centres unmarked) [Isononanoyl-N,N-dimethylamide]
[2]
  d7 [CFU/ml]: 3,600 CFU/ml
  d14 [CFU/ml]: 3,350 CFU/ml
  d21 [CFU/ml]: 15,000 CFU/ml
[1]
  d7 [CFU/ml]: 3,850 CFU/ml
  d14 [CFU/ml]: 13,500 CFU/ml
  d21 [CFU/ml]: 5,000 CFU/ml

## CCCCC(CC)CNC(=O)/C=C\C(=O)O (centres unmarked) [Maleic acid N-2-ethylhexyl-amide]
[3]; MDW + 1.0% PE + 0.6% amide
  d7 [CFU/ml]: 14,500 CFU/ml
  d14 [CFU/ml]: 2,900 CFU/ml
  d21 [CFU/ml]: 225 CFU/ml
[2]
  d7 [CFU/ml]: 875 CFU/ml
  d14 [CFU/ml]: 8,500 CFU/ml
  d21 [CFU/ml]: 18,500 CFU/ml
[1]
  d7 [CFU/ml]: 545 CFU/ml
  d14 [CFU/ml]: 22,000 CFU/ml
  d21 [CFU/ml]: 20,500 CFU/ml
[4]; [7]
  d7 [CFU/ml]: >100,000 CFU/ml
  d14 [CFU/ml]: >100,000 CFU/ml
  d21 [CFU/ml]: >100,000 CFU/ml
[4]; MDW + 1.0% amide, no PE
  d7 [CFU/ml]: >100,000 CFU/ml
  d14 [CFU/ml]: >100,000 CFU/ml
  d21 [CFU/ml]: >100,000 CFU/ml
[4]; MDW + 2.0% PE + 0.25% amide
  d7 [CFU/ml]: <10 CFU/ml
  d14 [CFU/ml]: <10 CFU/ml
  d21 [CFU/ml]: <10 CFU/ml
[4]; MDW + 2.0% PE + 1.0% amide
  d7 [CFU/ml]: <10 CFU/ml
  d14 [CFU/ml]: <10 CFU/ml
  d21 [CFU/ml]: <10 CFU/ml
[4]; MDW + 2.0% PE + 5.0% amide
  d7 [CFU/ml]: <10 CFU/ml
  d14 [CFU/ml]: <10 CFU/ml
  d21 [CFU/ml]: <10 CFU/ml
[4]; [8]
  d7 [CFU/ml]: >100,000 CFU/ml
  d14 [CFU/ml]: >100,000 CFU/ml
  d21 [CFU/ml]: >100,000 CFU/ml

## C=CCCCCCCCC(=O)N(C)C [N,N-dimethyl 9-decenoylamide]
[5]; day 7
  d7 [CFU/ml]: <10 CFU/ml
[5]; day 21
  d21 [CFU/ml]: <10 CFU/ml

## Oc1cc(Cl)ccc1Oc1ccc(Cl)cc1 [diclosan, 4,4′-dichloro-2-hydroxydiphenyl ether, reference compound]
[6]; 10% PG + 0.015% diclosan, no amide (Comparative)
  d7 [CFU/ml]: >100,000 CFU/ml

## CCCCCCCCCC(=O)N1CCOCC1 [n-Decanoyl-morpholine]
[3]; MDW + 1.0% PE + 1.0% amide
  d7 [CFU/ml]: 1,200 CFU/ml
  d14 [CFU/ml]: 305 CFU/ml
  d21 [CFU/ml]: 245 CFU/ml
[2]
  d7 [CFU/ml]: 55 CFU/ml
  d14 [CFU/ml]: <10 CFU/ml
  d21 [CFU/ml]: 35 CFU/ml
[1]
  d7 [CFU/ml]: <10 CFU/ml
  d14 [CFU/ml]: 30 CFU/ml
  d21 [CFU/ml]: 190 CFU/ml
[6]; 10% PG + 0.015% diclosan + 0.04% amide
  d7 [CFU/ml]: 41,500 CFU/ml
[6]; 10% PG + 0.04% amide, no diclosan (Comparative 1a)
  d7 [CFU/ml]: >100,000 CFU/ml

## CCCCCCCC(=O)N(C)C [n-Octanoyl-N,N-dimethylamide]
[1]
  d7 [CFU/ml]: 25 CFU/ml
  d14 [CFU/ml]: 2,100 CFU/ml
  d21 [CFU/ml]: 5,550 CFU/ml

## CCCCN(CCCC)C(=O)CC [n-Propanoyl-N,N-dibutylamide]
[2]
  d7 [CFU/ml]: 1,750 CFU/ml
  d14 [CFU/ml]: 3,750 CFU/ml
  d21 [CFU/ml]: 25,000 CFU/ml
[1]
  d7 [CFU/ml]: 39,500 CFU/ml
  d14 [CFU/ml]: 39,000 CFU/ml
  d21 [CFU/ml]: 23,500 CFU/ml
